The values below come from publication PMC7710018, “Restoration of motor learning in a mouse model of Rett syndrome following long-term treatment with a novel small-molecule activator of TrkB” (Disease Models & Mechanisms, 2020).

The structures appear in SMILES notation. “Also recorded” adds a separate entry of the source. Where two headings read alike, the source gives them in different places.

The subject of assay [1] is 55 pharmacologically relevant receptors. Set-up: method as in Massa et al., 2010. Particulars: standard screening concentration; ref Massa et al., 2010; cited from earlier work.
The test system is the same in assay [2]. Description: Cerep ExpresSProfile screen, whole panel. The conditions noted are these: 10 μM; inhibition of binding greater than 50% = significant binding. An excerpt: To further define the specificity of PTX-BD4-3 for TrkB, we screened 55 pharmacologically relevant receptors, including neurotransmitter and G-protein coupled receptors for PTX-BD4-3 binding (Table S1). […] Thus, as with LM22A-4 ([Massa et al., 2010]), the specificity of PTX-BD4-3 for TrkB is supported by multiple lines of evidence, including receptor binding, receptor activation, receptor adaptor recruitment and cell survival assays.
(§1) To evaluate the relative binding specificity of LM22A-4 ([Massa et al., 2010]) and PTX-BD4-3, binding to a broad range of 55 pharmacologically relevant receptors, including numerous neurotransmitter and G-protein coupled receptors was assessed using standard radioligand competition binding assays (ExpressSProfile) performed by Cerep, Inc. (Seattle, WA, USA). In addition, ADME-Tox analysis was performed by Cerep, Inc. All experimental conditions are described on the Cerep website (www.cerep.fr). […]
48 Ca2+ channel (L, verapamil site) 0 ‐1.3 ‐0.7
(phenylalkylamine) (antagonist radioligand) […]
51 Na+ channel (site 2) (antagonist radioligand) 0.6 11.7 6.1
52 Cl‐ channel (GABA‐gated) (antagonist 2.7 ‐5.3 ‐1.3 […]
Table S1. In vitro binding assays. […]
(Eurofins Panlabs, MO). The results are expressed as percent inhibition of control specific binding obtained in the presence of 10 micromolar PTX-BD4-3. […]

Assay [3] deals with heterozygous (Het) female Mecp2 mutant mice. Description: Rotarod. The format is in vivo, mouse. The conditions noted are these: 5 mg/kg q72 h. The protocol:
Small-molecule compounds were diluted in saline and delivered by i.p. injection. To define the acute effects of single drug treatments, behavioral testing was initiated 1 h after dosing. Durable effects of single drug treatments were evaluated 24 h after dosing. […]
A Rotarod apparatus (Columbus Instruments) was used test to assess sensorimotor coordination. Animals were placed on a rotating rod at a constant speed of 4 rpm for 1 min of acclimation. […] Latency of the animal to fall was recorded. The test was repeated three times, with each trial separated by 15 min, to assess potential learning components of any observed phenotypes.
A general note: In the rotarod test animals must keep their balance on a rotating rod.

The target in assay [4] is T1, norepinephrine transporter (h) (Homo sapiens, UniProt P23975).
T1 construct: Cerep, Inc. (contract screen)
Description: Cerep ExpresSProfile radioligand binding. The conditions noted are these: 10 micromolar, antagonist radioligand. The protocol:
as §1
(§2) Table S1. In vitro binding assays. An ExpresSProfile screen of PTX-BD4-3 binding to a panel of pharmacologically relevant receptors was conducted by Cerep, Inc.
(§3) (Eurofins Panlabs, MO). The results are expressed as percent inhibition of control specific binding obtained in the presence of 10 micromolar PTX-BD4-3. In this assay, values below 50% indicate no specific binding of PTX-BD4-3. The assay was negative for PTX-BD4-3 binding to all of the 55 receptors in the screen.
(§4) (also on this page, place not known: 2B 5‐HT 3 5‐HT 5a 5‐HT 6 5‐HT 7 (agonis t VPAC 1 V 1 Ca 2+ K V SK Ca Na + Cl ‐ 5‐HT Disease Models & Mechanisms: doi:10.1242/dmm.044685: Supplementary information Disease Models & Mechanisms • Supplementary information)

Assay [5] relates to Na+ channel (site 2). Description: Cerep ExpresSProfile radioligand binding. The conditions noted are these: 10 micromolar; antagonist radioligand. The protocol: as §1, §2, §3, §4
In assay [6] the target is T2, β1 (h) (Homo sapiens, UniProt P08588).
T2 construct: purchased Cerep (ExpresSProfile)
Description: Cerep ExpresSProfile radioligand binding. The conditions noted are these: 10 micromolar; agonist radioligand; read-out: % Inhibition of Control Specific Binding 1st. On the procedure: as §1, §2, §3, §4

Assay [7] deals with α2 (non-selective). Description: Cerep ExpresSProfile radioligand binding. The conditions noted are these: 10 micromolar; antagonist radioligand. On the procedure: as §1, §2, §3, §4
The target of assay [8] is T3, M1 (h) (Homo sapiens, UniProt P11229).
T3 construct: purchased Cerep (ExpresSProfile)
T3 sequence (P11229 1-460): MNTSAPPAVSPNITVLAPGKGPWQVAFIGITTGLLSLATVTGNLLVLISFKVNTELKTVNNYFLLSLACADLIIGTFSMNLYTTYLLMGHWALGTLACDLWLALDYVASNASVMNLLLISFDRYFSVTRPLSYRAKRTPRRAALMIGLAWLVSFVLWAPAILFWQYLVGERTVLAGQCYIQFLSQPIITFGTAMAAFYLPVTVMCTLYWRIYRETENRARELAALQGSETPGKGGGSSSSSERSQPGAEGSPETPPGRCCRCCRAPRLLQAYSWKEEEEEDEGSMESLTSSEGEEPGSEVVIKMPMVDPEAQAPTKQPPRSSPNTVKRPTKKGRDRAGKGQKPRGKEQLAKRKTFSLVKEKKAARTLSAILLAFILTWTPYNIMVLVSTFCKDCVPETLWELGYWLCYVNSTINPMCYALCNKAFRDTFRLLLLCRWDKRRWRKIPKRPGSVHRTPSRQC
Description: Cerep ExpresSProfile radioligand binding. Particulars: 10 micromolar, antagonist radioligand. On the procedure: as §1, §2, §3, §4

Assay [9] concerns the target T4, 5-HT2B (h) (Homo sapiens, UniProt P41595).
T4 construct: Cerep, Inc. (contract screen)
Description: Cerep ExpresSProfile radioligand binding. Particulars: 10 micromolar, agonist radioligand. On the procedure: as §1, §2, §3, §4

Assay [10] deals with Ca2+ channel (L, verapamil site) (phenylalkylamine). Description: Cerep ExpresSProfile radioligand binding. The conditions noted are these: 10 micromolar; antagonist radioligand. On the procedure:
as §1, §2, §3, §4

Assay [11] deals with α1 (non-selective). Description: Cerep ExpresSProfile radioligand binding. Particulars: 10 micromolar; antagonist radioligand. The protocol:
as §1, §2, §3, §4

Assay [12] concerns sst (non-selective). Description: Cerep ExpresSProfile radioligand binding. The conditions noted are these: 10 micromolar; agonist radioligand. On the procedure: as §1, §2, §3, §4
Assay [13] concerns the target T5, NOP (ORL1) (h) (Homo sapiens, UniProt P41146).
T5 construct: purchased Cerep (ExpresSProfile)
Description: Cerep ExpresSProfile radioligand binding. The conditions noted are these: 10 micromolar, agonist radioligand. The protocol: as §1, §2, §3, §4

The target in assay [14] is T6, δ2 (DOP) (h) (Homo sapiens, UniProt P41143).
T6 construct: purchased Cerep (ExpresSProfile)
Description: Cerep ExpresSProfile radioligand binding. The conditions noted are these: 10 micromolar; agonist radioligand; read-out: % Inhibition of Control Specific Binding 2nd. The protocol:
as §1, §2, §3, §4

The target in assay [15] is T7, 5-HT7 (h) (Homo sapiens, UniProt P34969).
T7 construct: Cerep, Inc. (contract screen)
Description: Cerep ExpresSProfile radioligand binding. The conditions noted are these: 10 micromolar, agonist radioligand. On the procedure: as §1, §2, §3, §4

[16] abbreviates: read-out: % Inhibition of Control Specific Binding 1st.
Setting [17] is: read-out: % Inhibition of Control Specific Binding 2nd.
Setting [18] is: read-out: % Inhibition of Control Specific Binding Mean.

T7 sequence (P34969 whole entry): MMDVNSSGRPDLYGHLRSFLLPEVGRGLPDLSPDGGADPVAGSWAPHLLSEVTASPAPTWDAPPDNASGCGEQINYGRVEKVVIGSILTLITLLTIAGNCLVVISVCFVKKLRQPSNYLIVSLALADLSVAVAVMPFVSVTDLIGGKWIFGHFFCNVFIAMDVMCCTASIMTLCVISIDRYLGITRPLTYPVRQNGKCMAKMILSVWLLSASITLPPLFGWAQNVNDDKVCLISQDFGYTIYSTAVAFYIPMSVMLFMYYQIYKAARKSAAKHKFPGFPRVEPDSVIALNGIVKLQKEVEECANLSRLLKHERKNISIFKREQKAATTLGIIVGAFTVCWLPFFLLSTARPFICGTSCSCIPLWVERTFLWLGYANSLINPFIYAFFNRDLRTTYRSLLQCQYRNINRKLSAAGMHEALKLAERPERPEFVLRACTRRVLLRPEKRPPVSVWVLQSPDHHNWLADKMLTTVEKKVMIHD
T1 sequence (P23975 whole entry): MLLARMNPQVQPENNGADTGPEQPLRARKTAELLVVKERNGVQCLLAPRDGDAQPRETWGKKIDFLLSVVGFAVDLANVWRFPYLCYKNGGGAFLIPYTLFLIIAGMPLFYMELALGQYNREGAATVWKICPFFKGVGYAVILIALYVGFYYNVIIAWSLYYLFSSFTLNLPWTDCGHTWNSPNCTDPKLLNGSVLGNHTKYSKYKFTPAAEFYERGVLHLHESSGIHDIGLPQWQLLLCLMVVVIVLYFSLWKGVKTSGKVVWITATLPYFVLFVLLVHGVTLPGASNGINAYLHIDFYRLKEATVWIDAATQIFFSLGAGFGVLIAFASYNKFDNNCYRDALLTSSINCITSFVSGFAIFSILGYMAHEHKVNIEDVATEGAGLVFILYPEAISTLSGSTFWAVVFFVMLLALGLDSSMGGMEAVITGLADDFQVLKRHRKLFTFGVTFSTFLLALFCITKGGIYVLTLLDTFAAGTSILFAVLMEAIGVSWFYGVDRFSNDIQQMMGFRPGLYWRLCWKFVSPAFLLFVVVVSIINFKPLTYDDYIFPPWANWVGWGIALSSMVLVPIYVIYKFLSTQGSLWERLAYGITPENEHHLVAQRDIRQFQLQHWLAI
T5 sequence (P41146 whole entry): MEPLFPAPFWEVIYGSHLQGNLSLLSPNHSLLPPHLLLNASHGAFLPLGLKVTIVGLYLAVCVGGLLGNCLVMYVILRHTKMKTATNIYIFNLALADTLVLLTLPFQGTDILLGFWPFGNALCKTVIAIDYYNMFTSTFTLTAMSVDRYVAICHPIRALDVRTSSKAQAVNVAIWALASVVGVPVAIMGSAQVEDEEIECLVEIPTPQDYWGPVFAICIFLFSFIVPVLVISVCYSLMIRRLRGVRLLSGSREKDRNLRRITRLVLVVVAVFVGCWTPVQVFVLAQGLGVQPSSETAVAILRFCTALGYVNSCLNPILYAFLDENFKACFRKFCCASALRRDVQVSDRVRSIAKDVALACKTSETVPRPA
T4 sequence (P41595 whole entry): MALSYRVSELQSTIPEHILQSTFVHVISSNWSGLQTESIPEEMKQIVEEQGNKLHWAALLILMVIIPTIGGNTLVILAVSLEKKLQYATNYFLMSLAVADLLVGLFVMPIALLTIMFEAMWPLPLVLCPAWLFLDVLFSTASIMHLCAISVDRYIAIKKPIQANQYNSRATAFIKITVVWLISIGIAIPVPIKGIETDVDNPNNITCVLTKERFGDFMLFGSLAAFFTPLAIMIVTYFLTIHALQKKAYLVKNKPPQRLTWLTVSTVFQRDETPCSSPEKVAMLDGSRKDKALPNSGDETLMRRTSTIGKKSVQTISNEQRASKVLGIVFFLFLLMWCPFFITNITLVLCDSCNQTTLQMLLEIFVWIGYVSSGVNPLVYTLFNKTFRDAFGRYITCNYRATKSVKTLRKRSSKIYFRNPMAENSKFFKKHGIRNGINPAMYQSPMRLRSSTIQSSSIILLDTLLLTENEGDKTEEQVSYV
T2 sequence (P08588 whole entry): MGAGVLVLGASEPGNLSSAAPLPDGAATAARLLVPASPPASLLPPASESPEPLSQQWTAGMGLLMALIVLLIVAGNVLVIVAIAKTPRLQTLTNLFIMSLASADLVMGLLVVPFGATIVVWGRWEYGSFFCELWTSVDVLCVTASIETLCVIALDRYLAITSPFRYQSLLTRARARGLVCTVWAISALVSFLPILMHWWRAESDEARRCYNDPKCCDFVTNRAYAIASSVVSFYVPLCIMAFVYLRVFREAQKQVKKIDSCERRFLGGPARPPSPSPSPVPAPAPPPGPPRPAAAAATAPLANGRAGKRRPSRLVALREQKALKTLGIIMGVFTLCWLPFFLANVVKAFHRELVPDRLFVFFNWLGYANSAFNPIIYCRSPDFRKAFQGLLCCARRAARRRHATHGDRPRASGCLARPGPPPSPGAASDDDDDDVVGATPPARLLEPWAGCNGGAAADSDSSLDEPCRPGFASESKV
T6 sequence (P41143 whole entry): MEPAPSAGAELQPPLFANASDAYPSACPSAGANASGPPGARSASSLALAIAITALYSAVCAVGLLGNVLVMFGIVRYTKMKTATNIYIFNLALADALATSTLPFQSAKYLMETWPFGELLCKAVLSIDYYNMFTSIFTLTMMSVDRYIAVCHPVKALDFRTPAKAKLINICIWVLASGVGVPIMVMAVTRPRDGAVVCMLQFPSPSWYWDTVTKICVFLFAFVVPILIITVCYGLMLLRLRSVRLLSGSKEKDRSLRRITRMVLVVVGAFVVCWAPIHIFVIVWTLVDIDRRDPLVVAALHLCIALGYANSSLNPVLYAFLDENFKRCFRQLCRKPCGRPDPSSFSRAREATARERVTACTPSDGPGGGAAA

As for `O=C(NCCO)c1cc(C(=O)NCCO)cc(C(=O)NCCO)c1` [LM22A-4, N,N′,N′′-tris(2-hydroxyethyl)-1,3,5-benzenetricarboxamide, reference compound], in assay [1], the “binding within the panel of 55 receptors” value was “no significant binding”.

As to `COCCN(C)C(=O)c1cc(C(=O)N(C)CCOC)cc(C(=O)N(C)CCOC)c1` [PTX-BD4-3, benzene-1,3,5-tricarboxylic acid tris-[(2-methoxy-ethyl)-methyl-amide]], in assay [2], the “binding within the panel of 55 receptors” value is given as “negative; also recorded: no significant binding”. Also, the “Rotarod performance (latency to fall)” value in assay [3] (2 weeks, repeated testing, 24 h after last dose) is “as impaired as their saline-treated Het littermates”; in assay [3] (8 weeks, repeated testing at 2, 4, 8 weeks, 24 h after last dose), “comparable to that of saline-treated Wt controls”; in assay [3] (8 weeks, tested only at the end of treatment, vs saline-treated Het), “no improvement”. Moreover, the inhibition (as a rule, the drop in the measured response relative to a control, in per cent) at 10 µM worked out at 5.1% in [4] (setting [16]); 1.1% in assay [4] (setting [17]); 3.1% in assay [4] (setting [18]); 3.7% in assay [6]; 5% in assay [8] (setting [16]); 15% in assay [8] (setting [17]). Besides, the inhibition at 10 µM stood at 10% in assay [8] (setting [18]); 12.6% in [9] (setting [16]); 3.5% in assay [9] (setting [18]); 6.3% in assay [13] (setting [17]); 0.1% in assay [13] (setting [18]); 1.9% in assay [14]. In addition, the inhibition at 10 µM in assay [15] (setting [16]) is 8.1%; in [15] (setting [17]), 14.7%; in assay [15] (setting [18]), 11.4%. Moreover, the “% Inhibition of Control Specific Binding 1st” value in assay [5] was found to be 0.6%; in assay [7] it was 1.8%; in [10], 0%; in assay [11] it was 0.9%; in assay [12], 5.7%. Also, the figures for the “% Inhibition of Control Specific Binding 2nd” value in assay [5] and in assay [7] were 11.7% and 4.7%, respectively. The “% Inhibition of Control Specific Binding Mean” value in assay [5] is given as 6.1%; in assay [7], 3.2%; in assay [12], 0.3%.
